Patent US20100310478A1, “SUBSTITUTED BENZOQUINONES AND HYDROQUINONES IN THE TREATMENT OF PERIODONTAL DISEASES” (priority 2007, published 2010)
Values after ≈ are worked out from the molar mass of the structure shown. Where two headings read alike, the source gives them in different places.

Assays:
P. gingivalis NCTC 11834 [1] = assay: Minimum inhibitory concentration (MIC) assay; type: cell-based, Porphyromonas gingivalis
Protocol: (§1) P. gingivalis strains were cultured and maintained on Wilkins-Chalgren Anaerobe Medium (agar and broth) at pH 7.0; all cultures were incubated anaerobically at 37° C. for 5-7 days. This is a standard international method for quantitatively assessing the antimicrobial activity of a compound in a liquid medium. The method used a sterile 96-well microtitre plate, capable of holding about 200 μl of liquid per well. […] The culture medium was as described above. The wells were inoculated with a liquid suspension of freshly grown micro-organism and incubated under the conditions described above. After incubation, the microtitre plate was examined visually (with the aid of a light box) for cloudiness in each well, which would indicate microbial growth. The MIC value was recorded as the lowest concentration of test compound required to inhibit microbial growth, ie the lowest concentration for which the liquid in the well remained clear. The assays were conducted in duplicate (minimum) and included both negative (culture medium with no micro-organisms) and positive (culture medium plus diluting solvent plus micro-organism) controls.

P. gingivalis NCTC 11834 [2] = assay: Minimum bactericidal concentration (MBC) assay; type: cell-based, Porphyromonas gingivalis
Protocol: P. gingivalis strains were cultured and maintained on Wilkins-Chalgren Anaerobe Medium (agar and broth) at pH 7.0; all cultures were incubated anaerobically at 37° C. for 5-7 days.
(§2) This assay, normally carried out after an MIC assay, determines the minimum concentration of a compound that is lethal to the micro-organism being tested.
(§3) These samples were then individually sub-cultured on antibiotic-free agar medium, under the incubation conditions described above. Following incubation they were examined visually for microbial growth.
(§4) The ratio of MIC to MBC should ideally be as close to 1 as possible.

S. mutans ATCC 25175 [3] = assay: Minimum inhibitory concentration (MIC) assay; type: cell-based, Streptococcus mutans
Protocol: as §1, with “S. mutans was” for “P. gingivalis strains were”, “7.0 supplemented with 1 g/L glucose;” for “7.0;”, “incubated” for “incubated anaerobically”, “48 hours in an atmosphere containing 5% CO2. For the formation of biofilms in biofilm disruption assays, however, S. mutans was grown in brain-heart infusion broth supplemented with 5% sucrose.” for “5-7 days.”

S. mutans ATCC 25175 [4] = assay: Minimum bactericidal concentration (MBC) assay; type: cell-based, Streptococcus mutans
Protocol: S. mutans was cultured and maintained on Wilkins-Chalgren Anaerobe Medium (agar and broth) at pH 7.0 supplemented with 1 g/L glucose; all cultures were incubated at 37° C. for 48 hours in an atmosphere containing 5% CO2. For the formation of biofilms in biofilm disruption assays, however, S. mutans was grown in brain-heart infusion broth supplemented with 5% sucrose.
as §2, §3, §4

[5] = tested on: Acinetobacter baumanni ATCC 19606; assay: MBC assay; type: cell-based
Protocol: as §2, §3

[6] = tested on: Escherichia coli ATCC 25922; assay: MBC assay; type: cell-based
Protocol: as §2, §3

[7] = tested on: Klebsiella pneumoniae ATCC 700603; assay: MBC assay; type: cell-based
Protocol: as §2, §3

[8] = tested on: Pseudomonas aeruginosa ATCC 27853; assay: MBC assay; type: cell-based
Protocol: as §2, §3

P. gingivalis NCTC 11834 [9] = assay: Short-contact kill assay (SCKA); type: cell-based, Porphyromonas gingivalis; conditions: 0.2% (w/v)
Protocol: (§5) This quantitative assay was designed to determine the relative potency of a test compound or combination of test compounds to kill a test micro-organism over a short-contact time period (up to 5 minutes).
(§6) Samples from a culture of micro-organisms (ca. 1×10^8 cfu/ml) prepared in phosphate buffered saline (PBS) containing the relevant test compound(s) were taken at timed intervals (between 0 and 5 minutes), 10-fold serially diluted in PBS and then inoculated onto agar plates in triplicate. A culture containing only the solvent(s) used to dissolve the test compound(s) acted as a control for the assay (maximum solvent load 2.5% v/v).
(§7) The plates were then incubated as described above and subsequently examined visually for growth. Colonies were counted at an appropriate serial dilution (5-50 individual colonies visible) with the aid of a colony counter. These measurements were then converted to numbers of colony forming units (cfu), using the formula: cfu/ml=number of colonies×serial dilution factor×100 (as only a […] was taken).
(§8) These cfu values were then converted into […] values and plotted graphically against time of sample removal.
(§9) At each time point, samples were assessed in triplicate; the final cfu/ml value was an average (mean) of the three readings.
(§10) SCKAs, as described above, were carried out using TBHQ as the test compound. Chlorhexidine was used as a positive control and 2.5% ethanol as a negative control.
(§11) For the SCKA experiments, the TBHQ and chlorhexidine were both tested at concentrations of 0.2% w/v. The TBHQ was dissolved in ethanol and the chlorhexidine in distilled water. All the experiments were conducted in triplicate.

S. mutans ATCC 25175 [10] = assay: Short-contact kill assay (SCKA); type: cell-based, Streptococcus mutans; conditions: 0.2% (w/v)
Protocol: as §5, §6, §7, §8, §9, §10, §11

[11] = tested on: P. gingivalis 381 biofilm; assay: Biofilm disruption assay on hydroxyapatite discs; type: cell-based, Porphyromonas gingivalis; conditions: 0.2% (w/v)
Protocol: (§12) This assay was designed to determine quantitatively the relative potency of a test compound to disrupt (effectively kill) biofilms formed by a test organism on hydroxyapatite (HA) discs. Biofilms were formed on sterile dense ceramic HA discs 7 mm diameter×1.8 mm thick (Clarkson Chromatography) by placing the discs in the appropriate liquid media (as described above) inoculated with the test organism (0.5×10^8 cfu/ml). The HA discs were then incubated at 37° C. for ˜48 hours in a 5% CO2 atmosphere (for S. mutans ATCC 25175) or ˜96 hours under anaerobic conditions (for P. gingivalis 381). Following the incubation period the supernatant was removed from the wells containing the HA discs and the discs were washed x3 with fresh media to ensure all planktonic cells were removed. The HA discs were then transferred to sterile bijoux bottles containing 1 ml of phosphate buffered saline (PBS) plus test compound(s) at the required concentration. After a set time period (usually 2 and/or 5 min), the HA disc was transferred to another sterile bijoux containing 1 ml of fresh growth media. Adherent cells were then harvested by vigorous vortexing for 2 minutes. A sample was then taken, serially diluted 10-fold in fresh growth media and inoculated onto agar plates in triplicate. Untreated HA discs, and HA discs added to PBS containing only the solvents used to dissolve the test compound(s), acted as controls. The plates were then incubated as described above and subsequently examined visually for growth. Colonies were counted at an appropriate serial dilution (5-50 individual colonies visible) with the aid of a colony counter. These measurements were then converted to numbers of colony forming units (cfu), using the formula: cfu/ml=number of colonies×serial dilution factor×100 (as only a 10 μl sample was taken). These cfu values were then converted into log10 values and plotted graphically against time of sample removal. At each time point, samples were assessed in triplicate; the final cfu/ml value was an average (mean) of the three readings. Biofilm disruption assays, as described above, were carried out using TBHQ as the test compound and chlorhexidine as a positive control. The negative control was 5% ethanol. For these experiments, the TBHQ and chlorhexidine were tested at concentrations of 0.2% w/v. The TBHQ was dissolved in ethanol and the chlorhexidine in distilled water. All the experiments were conducted in triplicate.

[12] = tested on: S. mutans ATCC 25175 biofilm; assay: Biofilm disruption assay on hydroxyapatite discs; type: cell-based, Streptococcus mutans; conditions: 0.2% (w/v)
Protocol: as §12

[13] = 1 min, 3.00 = limit of detection
[14] = 0.5 min, 3.00 = limit of detection
[15] = 5 min, 2.00 = limit of detection

SMILES	MIC/MBC ratio (P. gingivalis NCTC 11834 [2]; Tables 1, 2)	MIC/MBC ratio (S. mutans ATCC 25175 [4]; Tables 1, 2)	Viable cell counts (P. gingivalis NCTC 11834 [9]; 0 min) [Log10 cfu/ml]	Viable cell counts (P. gingivalis NCTC 11834 [9]; 0.5 min)	Viable cell counts (P. gingivalis NCTC 11834 [9]; [13])	Viable cell counts (S. mutans ATCC 25175 [10]; 0 min) [Log10 cfu/ml]	Viable cell counts (S. mutans ATCC 25175 [10]; [14])	Viable cell counts (S. mutans ATCC 25175 [10]; [13])	Viable cell counts ([11]; 0 min) [Log10 cfu/ml]	Viable cell counts ([11]; 2 min) [Log10 cfu/ml]	Viable cell counts [11, 15]	Viable cell counts ([12]; 0 min) [Log10 cfu/ml]	Viable cell counts ([12]; 2 min) [Log10 cfu/ml]	Viable cell counts ([12]; 5 min) [Log10 cfu/ml]	MIC (P. gingivalis NCTC 11834 [1]; Table 7) [µg/mL]	MBC (P. gingivalis NCTC 11834 [2]; Table 7) [µg/mL]	MIC/MBC ratio (P. gingivalis NCTC 11834 [2]; Table 7)	MIC (S. mutans ATCC 25175 [3]; Table 8) [µg/mL]	MBC (S. mutans ATCC 25175 [4]; Table 8) [µg/mL]	MIC/MBC ratio (S. mutans ATCC 25175 [4]; Table 8)	also measured
CC(C)(C)c1cc(O)ccc1O [TBHQ, t-butyl-p-hydroquinone]	0.5	1	9.32	6.50 Log10 cfu/ml	*3.00 Log10 cfu/ml	7.64	7.56 Log10 cfu/ml	7.36 Log10 cfu/ml	7.74	6.52	*2.00 Log10 cfu/ml	6.36	6.52	6.24	–	–	–	–	–	–	MIC (P. gingivalis NCTC 11834 [1]; Tables 1, 2): 0.49 µg/mL (≈ 2.95 µM); MBC (P. gingivalis NCTC 11834 [2]; Tables 1, 2): 0.98 µg/mL (≈ 5.9 µM); MIC (S. mutans ATCC 25175 [3]; Tables 1, 2): 31.25 µg/mL (≈ 188 µM); MBC (S. mutans ATCC 25175 [4]; Tables 1, 2): 31.25 µg/mL (≈ 188 µM); MBC [5]: 500 µg/mL (≈ 3010 µM); MBC [6]: 500 µg/mL (≈ 3010 µM); MBC [7]: 1000 µg/mL (≈ 6020 µM); MBC [8]: > 1000 µg/mL
[H]/N=C(\N/C(=N/[H])NCCCCCCNC(=N)NC(=N)Nc1ccc(Cl)cc1)Nc1ccc(Cl)cc1 [CHX, chlorhexidine, reference compound]	1	0.5	9.29	*3.00 Log10 cfu/ml	*3.00 Log10 cfu/ml	8.05	*3.00 Log10 cfu/ml	*3.00 Log10 cfu/ml	7.74	6.08	6.29 Log10 cfu/ml	6.36	5.00	5.21	–	–	–	–	–	–	MIC (P. gingivalis NCTC 11834 [1]; Porphyromonas gingivalis, NCTC11834, Tables 1, 2, read-out: MIC): 0.98 µg/mL (≈ 1.94 µM); MBC (P. gingivalis NCTC 11834 [2]; Porphyromonas gingivalis, NCTC11834, Tables 1, 2, read-out: MBC): 0.98 µg/mL (≈ 1.94 µM); MIC (S. mutans ATCC 25175 [3]; Streptococcus mutans, ATCC25175, Tables 1, 2, read-out: MIC): 0.625 µg/mL (≈ 1.24 µM); MBC (S. mutans ATCC 25175 [4]; Streptococcus mutans, ATCC25175, Tables 1, 2, read-out: MBC): 1.25 µg/mL (≈ 2.47 µM)
CC(C)(C)c1cc(O)c(C(C)(C)C)cc1O [2,5-di-t-butyl-p-hydroquinone]	–	–	–	–	–	–	–	–	–	–	–	–	–	–	15.6 (≈ 70.2 µM)	15.6 (≈ 70.2 µM)	1	250 (≈ 1120 µM)	> 250	<0.5	–
CCc1cc(O)ccc1O [2-ethyl-p-hydroquinone]	–	–	–	–	–	–	–	–	–	–	–	–	–	–	0.98 (≈ 7.09 µM)	1.95 (≈ 14.1 µM)	0.5	31.2 (≈ 226 µM)	125 (≈ 905 µM)	0.25	–
Cc1cc(O)c(C(C)C)cc1O [Thymohydroquinone, thymohydroquinone]	–	–	–	–	–	–	–	–	–	–	–	–	–	–	< 0.49	0.98 (≈ 5.9 µM)	<0.5	1.95 (≈ 11.7 µM)	250 (≈ 1500 µM)	0.008	–
